Experimental data published in patent US20240285770A1, “PRECIPITATION SUPPRESSING AGENT” (Nippon Shinyaku Co., Ltd., priority 2021, published 2024).

How the values were obtained:
[1] = Precipitation suppression with sucrose: absorbance at 620 nm of antisense oligomer in KCl/NaCl solution assumed to be in urine; assay type: physicochemical
Method: The presence or absence of the precipitation suppressing effects can be determined by adding the antisense oligomer and the precipitation suppressing agent in a solvent simulating urine and examining as described in Examples whether or not the precipitation suppressing agent reduces an increase in absorbance caused by precipitation of the antisense oligomer. For example, after the antisense oligomer and the precipitation suppressing agent are added to the solvent (e.g., 5 minutes later, 10 minutes later, 15 minutes later, 20 minutes later, 25 minutes later, 30 minutes later, 40 minutes later, 50 minutes later, 60 minutes later, 70 minutes later, 80 minutes later, or 90 minutes later), the absorbance can be determined under the conditions of 37° C. At this time, compared to a case of adding no precipitation suppressing agent, it can be determined to be effective in suppressing precipitation when a time until the precipitation is observed (until the increased absorbance at 620 nm is observed) or the absorbance at 620 nm are reduced, for example, by 5% or more, 10% or more, 20% or more, 30% or more, 40% or more, or 50% or more in the case of adding the precipitation suppressing agent. […] The absorbance at 620 nm of the solution thus mixed was measured using a plate reader, Infinite F200 Pro (manufactured by Tecan Group Ltd.) under heating conditions of 37° C. […]

kidney [2] = assay type: in vivo, C57BL/6J male mice; conditions: sucrose 20 to 100 mg/mL co-administered with PMO No. 8 50 mg/mL, 10 mL/kg tail vein, mice
Method: The antisense oligomer of PMO No. 8 was dissolved in water for injection comprising 0.9% sodium chloride, and a solution obtained by dissolving sucrose (manufactured by FUJIFILM Wako Pure Chemical Corporation) with physiological saline was added thereto to prepare a dosing solution comprising each of the antisense oligomer and sucrose at the concentrations shown in Tables 12 and 13. The obtained dosing solutions were administered into the tail vein of 6-week-old C57BL/6J male mice (N=3) at the amount of dosing solution shown in Table 12 (10 mL/kg). Next day, some mice to which the antisense oligomer of PMO No. 8 had been administered were subjected to autopsy, and formalin-fixed paraffin-embedded samples of the respective kidneys were prepared. Sections obtained by slicing the samples were subjected to hematoxylin-eosin staining and a histopathological test of the sections was performed.

kidney [3] = assay type: in vivo, C57BL/6J male mice; conditions: sucrose 200 mg/mL co-administered with PMO No. 11 130 mg/mL, 20 mL/kg tail vein, mice
Method: The antisense oligomer of PMO No. 11 was dissolved in physiological saline to prepare a control dosing solution comprising the antisense oligomer at the concentration shown in Table 14 and comprising no sucrose. Next, the antisense oligomer of PMO No. 11 and sucrose were dissolved in physiological saline to prepare dosing solutions comprising the antisense oligomer and sucrose at the concentrations shown in Table 14. The obtained dosing solutions were administered into the tail vein of 6-week-old C57BL/6J male mice (N=5) at 20 mL/kg. Next day, the mice were subjected to autopsy, and formalin-fixed paraffin-embedded samples of the respective kidneys were prepared. Sections obtained by slicing the samples were subjected to hematoxylin-eosin staining and a histopathological test of the sections was performed. Compared to the mice to which the control dosing solution comprising no sucrose has been administered, it was determined that the precipitation was suppressed in a case where there was improvement in the findings on the histopathological test of the kidney of the mice to which the dosing solution comprising sucrose has been administered.

[4] = Precipitation suppression with trehalose: absorbance at 620 nm of antisense oligomer in KCl/NaCl solution assumed to be in urine; assay type: physicochemical; conditions: Example 7: trehalose 45 to 180 mg/mL with PMO Nos. 1, 2, 7, and 8, 37° C., Tables 18 to 21
Method: The presence or absence of the precipitation suppressing effects can be determined by adding the antisense oligomer and the precipitation suppressing agent in a solvent simulating urine and examining as described in Examples whether or not the precipitation suppressing agent reduces an increase in absorbance caused by precipitation of the antisense oligomer. For example, after the antisense oligomer and the precipitation suppressing agent are added to the solvent (e.g., 5 minutes later, 10 minutes later, 15 minutes later, 20 minutes later, 25 minutes later, 30 minutes later, 40 minutes later, 50 minutes later, 60 minutes later, 70 minutes later, 80 minutes later, or 90 minutes later), the absorbance can be determined under the conditions of 37° C. At this time, compared to a case of adding no precipitation suppressing agent, it can be determined to be effective in suppressing precipitation when a time until the precipitation is observed (until the increased absorbance at 620 nm is observed) or the absorbance at 620 nm are reduced, for example, by 5% or more, 10% or more, 20% or more, 30% or more, 40% or more, or 50% or more in the case of adding the precipitation suppressing agent. […]

Structure (SMILES)	precipitation suppressing effect on antisense oligomers ([1]; Example 3: sucrose 45 to 270 mg/mL with PMO Nos. 8, 9, 10, 11, KCl and NaCl, 37° C., Tables 4 to 11)	precipitation suppressing effect on antisense oligomers ([1]; Example 6: sucrose 45 to 135 mg/mL with PMO Nos. 1, 2, and 7, 37° C., Tables 15 to 17)	precipitation suppressing effect in kidney (amount of precipitates, basophilic substances in lumens of renal tubules) (kidney [2])	precipitation suppression in kidney (improvement in findings on histopathological test) (kidney [3])	precipitation suppressing effect on antisense oligomers [4]
OC[C@H]1O[C@@](CO)(O[C@H]2O[C@H](CO)[C@@H](O)[C@H](O)[C@H]2O)[C@@H](O)[C@@H]1O [sucrose]	suppress the precipitation of antisense oligomers	suppress the precipitation of antisense oligomers	amount of precipitates decreased according to the concentrations of sucrose	confirmed to suppress precipitation	–
OC[C@H]1O[C@H](O[C@H]2O[C@H](CO)[C@@H](O)[C@H](O)[C@H]2O)[C@H](O)[C@@H](O)[C@@H]1O [trehalose]	–	–	–	–	suppress the precipitation of antisense oligomers
